# Results as given in ChEMBL document CHEMBL5584321, “Chemoenzymatic Synthesis of DNP-Functionalized FGFR1-Binding Peptides as Novel Peptidomimetic Immunotherapeutics for Treating Lung Cancer” (J Med Chem, 2024).
# Calls of active or inactive are those of the source. The rule behind the calls is not given here. Where a SMILES comes first, the peptide text is derived from it. The star is where a group is joined. X1 = O=[N+]([O-])c1ccc(OCCOCCOCCOCCOCCOCCN*)c([N+](=O)[O-])c1
# Experiments:
# [1] = system: NCI-H1581; experiment: Induction of cell lysis in human NCI-H1581 cells at 1 uM incubated for 1 hr by complement dependent cytotoxicity based CCK-8 assay relative to control; format: functional
# [2] = Toxicity in BALB/c mouse xenografted with human NCI-H1581 cells assessed as inflammation in kidney at 20 mg/kg,SC administrated once daily for 12 days by hematoxylin and eosin staining based analysis; format: organism-based; settings: in vivo, 288 h, time 12 day
# [3] = system: NCI-H1581; experiment: Binding affinity to FGFR1c in human NCI-H1581 cells assessed as fluorescence intensity at 10 uM by antibody recruiting based flow cytometry; format: cell-based
# [4] = Toxicity in BALB/c mouse xenografted with human NCI-H1581 cells assessed as inflammation in heart at 20 mg/kg,SC administrated once daily for 12 days by hematoxylin and eosin staining based analysis; format: organism-based; settings: in vivo, 288 h, time 12 day
# [5] = system: NCI-H1581; experiment: Antitumor activity against human NCI-H1581 cells xenografted BALB/c mouse model assessed as tumor necrosis at 20 mg/kg,SC administrated once daily for 12 days by hematoxylin and eosin staining based analysis; format: functional, organism-based; settings: time 12.0 day
# [6] = system: NCI-H1581; experiment: Antitumor activity against human NCI-H1581 cells xenografted BALB/c mouse model assessed as inhibition of tumor proliferation by measuring decrease in Ki67 positive cells at 20 mg/kg,SC administrated once daily for 12 days; format: functional, organism-based; settings: time 12.0 day
# [7] = system: L6; experiment: Induction of apoptosis in FGF2-induced rat L6 cells stably expressing human full-length FGFR1c assessed as downregulation of BCL-2 expression at 50 uM incubated for 24 hrs by Western blotting analysis; format: functional, cell-based
# [8] = system: L6; experiment: Induction of cell lysis in rat L6 cells at 1 uM incubated for 1 hr by complement dependent cytotoxicity based CCK-8 assay relative to control; format: functional
# [9] = Toxicity in BALB/c mouse xenografted with human NCI-H1581 cells assessed as inflammation in lung at 20 mg/kg,SC administrated once daily for 12 days by hematoxylin and eosin staining based analysis; format: organism-based; settings: in vivo, 288 h, time 12 day
# [10] = system: L6; experiment: Binding affinity to FGFR1c in rat L6 cells assessed as increase in green fluorescence signal incubated for 1 hr by Alexa-488 staining based confocal fluorescence microscopic analysis; format: cell-based
# [11] = Hepatotoxicity in BALB/c mouse xenografted with human NCI-H1581 cells assessed as change in AST level at 20 mg/kg,SC administrated once daily for 12 days; format: toxicity, organism-based; settings: in vivo, 288 h, time 12 day
# [12] = system: NCI-H1581; experiment: Binding affinity to FGFR1c in human NCI-H1581 cells assessed as increase in green fluorescence signal incubated for 1 hr by Alexa-488 staining based confocal fluorescence microscopic analysis; format: cell-based
# [13] = system: L6; experiment: Binding affinity to human full-length wild type FGFR1c stably expressed in rat L6 cells assessed as increase in green fluorescence signal incubated for 1 hr by Alexa-488 staining based confocal fluorescence microscopic analysis; format: cell-based
# [14] = Renal toxicity in BALB/c mouse xenografted with human NCI-H1581 cells assessed as change in creatinine level at 20 mg/kg,SC administrated once daily for 12 days; format: organism-based; settings: in vivo, 288 h, time 12 day
# [15] = Binding affinity to CM5 sensor chip immobilized human full-length wild type FGFR1c assessed as dissociation constant by SPR analysis
# [16] = Renal toxicity in BALB/c mouse xenografted with human NCI-H1581 cells assessed as change in urea level at 20 mg/kg,SC administrated once daily for 12 days; format: organism-based; settings: in vivo, 288 h, time 12 day
# [17] = Toxicity in BALB/c mouse xenografted with human NCI-H1581 cells assessed as change in kidney weight at 20 mg/kg,SC administrated once daily for 12 days; format: organism-based; settings: in vivo, 288 h, time 12 day
# [18] = system: NCI-H1581; experiment: Antitumor activity against human NCI-H1581 cells xenografted BALB/c mouse model assessed as induction of apoptosis by measuring increase in TUNEL positive cells at 20 mg/kg,SC administrated once daily for 12 days; format: functional, organism-based; settings: time 12.0 day
# [19] = Toxicity in BALB/c mouse xenografted with human NCI-H1581 cells assessed as cell necrosis in kidney at 20 mg/kg,SC administrated once daily for 12 days by hematoxylin and eosin staining based analysis; format: organism-based; settings: in vivo, 288 h, time 12 day
# [20] = Hepatotoxicity in BALB/c mouse xenografted with human NCI-H1581 cells assessed as change in ALT level at 20 mg/kg,SC administrated once daily for 12 days; format: toxicity, organism-based; settings: in vivo, 288 h, time 12 day
# [21] = system: L6; experiment: Binding affinity to human full-length wild type FGFR1c stably expressed in rat L6 cells assessed as fold change in fluorescence intensity at 10 uM by antibody recruiting based flow cytometry relative to Pep1; format: cell-based
# [22] = system: L6; experiment: Induction of cell lysis in rat L6 cells stably expressing human full-length FGFR1c at 1 uM incubated for 1 hr by complement dependent cytotoxicity based CCK-8 assay relative to control; format: functional
# [23] = Toxicity in BALB/c mouse xenografted with human NCI-H1581 cells assessed as cell necrosis in lung at 20 mg/kg,SC administrated once daily for 12 days by hematoxylin and eosin staining based analysis; format: organism-based; settings: in vivo, 288 h, time 12 day
# [24] = Toxicity in BALB/c mouse xenografted with human NCI-H1581 cells assessed as inflammation in spleen at 20 mg/kg,SC administrated once daily for 12 days by hematoxylin and eosin staining based analysis; format: organism-based; settings: in vivo, 288 h, time 12 day
# [25] = Toxicity in BALB/c mouse xenografted with human NCI-H1581 cells assessed as cell necrosis in spleen at 20 mg/kg,SC administrated once daily for 12 days by hematoxylin and eosin staining based analysis; format: organism-based; settings: in vivo, 288 h, time 12 day
# [26] = system: NCI-H1581; experiment: Antitumor activity against human NCI-H1581 cells xenografted BALB/c mouse model assessed as inhibition of tumor growth at 20 mg/kg,SC administrated once daily for 12 days relative to control; format: functional; settings: NCI-H1581, 288 h, time 12 day
# [27] = Toxicity in BALB/c mouse xenografted with human NCI-H1581 cells assessed as cell necrosis in liver at 20 mg/kg,SC administrated once daily for 12 days by hematoxylin and eosin staining based analysis; format: organism-based; settings: in vivo, 288 h, time 12 day
# [28] = system: L6; experiment: Induction of apoptosis in FGF2-induced rat L6 cells stably expressing human full-length FGFR1c assessed as upregulation of cleaved PARP expression at 50 uM incubated for 24 hrs by Western blotting analysis; format: functional, cell-based
# [29] = Tmax in immunized Sprague-Dawley rat at 1.5 mg/kg,SC administration measured upto 24 hrs by fluorescence based microplate reader assay; format: ADME, organism-based; settings: in vivo
# [30] = system: L6; experiment: Antiproliferative activity against FGF2-induced rat L6 cells stably expressing human full-length FGFR1c assessed as inhibition of cell growth at 100 uM incubated for 36 hrs by CCK-8 assay relative to control; format: functional
# [31] = Toxicity in BALB/c mouse xenografted with human NCI-H1581 cells assessed as change in liver weight at 20 mg/kg,SC administrated once daily for 12 days; format: organism-based; settings: in vivo, 288 h, time 12 day
# [32] = Toxicity in BALB/c mouse xenografted with human NCI-H1581 cells assessed as change in heart weight at 20 mg/kg,SC administrated once daily for 12 days; format: organism-based; settings: in vivo, 288 h, time 12 day
# [33] = Cmax in immunized Sprague-Dawley rat at 1.5 mg/kg,SC administration measured upto 24 hrs by fluorescence based microplate reader assay; format: ADME, organism-based; settings: in vivo
# [34] = Toxicity in BALB/c mouse xenografted with human NCI-H1581 cells assessed as cell necrosis in heart at 20 mg/kg,SC administrated once daily for 12 days by hematoxylin and eosin staining based analysis; format: organism-based; settings: in vivo, 288 h, time 12 day
# [35] = Toxicity in BALB/c mouse xenografted with human NCI-H1581 cells assessed as inflammation in liver at 20 mg/kg,SC administrated once daily for 12 days by hematoxylin and eosin staining based analysis; format: organism-based; settings: in vivo, 288 h, time 12 day
structure (smiles),measurement,setting,value
CC(C)C[C@H](NC(=O)[C@H](C)NC(=O)[C@@H](NC(=O)[C@H](Cc1ccc(O)cc1)NC(=O)[C@H](Cc1c[nH]c2ccccc12)NC(=O)[C@H](CO)NC(=O)[C@H](CO)NC(=O)[C@H](Cc1ccc(O)cc1)NC(=O)[C@H](CCCCN)NC(=O)[C@H](CCCNC(=N)N)NC(=O)[C@H](CO)NC(=O)[C@H](CCCNC(=N)N)NC(=O)[C@@H](N)Cc1ccc(O)cc1)C(C)C)C(=O)N[C@@H](CCCCN)C(=O)N[C@@H](CCCNC(=N)N)C(=O)N[C@@H](CC(C)C)C(=O)N1CCC[C@H]1C(=O)N[C@@H](CCC(=O)O)C(=O)N[C@H](C(=O)NCC(=O)NCC(=O)NCC(=O)NCCOCCOCCOCCOCCOCCOc1ccc([N+](=O)[O-])cc1[N+](=O)[O-])[C@@H](C)O (H-YRSRKYSSWYVALKRLPETGGG-X1),Activity,[1],44.5%
same,Activity,[2],Non-Toxic
same,Flu intensity,[3],5.7 10^3No_unit
same,Activity,[4],Non-Toxic
same,Activity,[5],Active
same,Activity,[6],Active
same,Activity,[7],Active
same,Activity,[8],inactive
same,Activity,[9],Non-Toxic
same,Activity,[10],inactive
same,Activity,[11],Non-Toxic
same,Activity,[12],Active
same,Activity,[13],Active
same,Activity,[14],Non-Toxic
same,Kd,[15],5.01 µM
same,Activity,[16],Non-Toxic
same,Activity,[17],Non-Toxic
same,Activity,[18],Active
same,Activity,[19],Non-Toxic
same,Activity,[20],Non-Toxic
same,fold change (FC),[21],200
same,Activity,[22],45.8%
same,Activity,[23],Non-Toxic
same,Activity,[24],Non-Toxic
same,Activity,[25],Non-Toxic
same,inhibition in vivo at 20 mg/kg,[26],72.7%
same,Activity,[27],Non-Toxic
same,Activity,[28],Active
same,Tmax,[29],1.67 h
same,inhibition at 100 µM,[30],100%
same,Activity,[31],Non-Toxic
same,Activity,[32],Non-Toxic
same,Cmax,[33],0.273 µg/mL
same,Activity,[34],Non-Toxic
same,Activity,[35],Non-Toxic
